Entries after “also recorded” stand apart in the source; their conditions may differ.
How the values were obtained:
[1] = test system: hypogonadotropic hypogonadal females; assay: Vaginal responsiveness during oral testosterone substitution; assay type: in vivo, human; settings: dosed each morning
Description: An important aspect of sexual motivation is physiological sexual responding. […] In both studies, subjects received testosterone each morning, but patients in the first experiment were tested in the afternoon and patients in the second experiment in the morning. The different outcomes on physiological responding between these experiments may be caused by a time-dependent effect of testosterone on vaginal arousal.

women suffering from FSD [2] = assay: Vaginal Pulse Amplitude (VPA) response to erotic film in women with FSD, placebo controlled cross-over; assay type: in vivo, human; settings: for Vaginal Pulse Amplitude during exposure to erotic stimuli (vaginal arousability) compared with placebo: testosterone 0.5 mg sublingual, Vardenafil 10 mg, four hours after medication; for increase in VPA between neutral and erotic films, before medication (trial 1) versus after medication (trial 4): within drug condition
Source text: Fourteen women with a heterosexual orientation (mean age: 40.6 years; sd: 10.4; premenopausal n=8, postmenopausal n=6) who have been experiencing FSD (i.e., low sexual desire, low sexual arousal or decreased orgasm potency) for at least six months prior to study entry, participated in this study. Subjects in fertile age used contraceptives (IUDs, sterilization, oral contraceptives except contraceptives containing anti-androgens). A pregnancy test was part of the procedure. Subjects were interviewed and examined by a gynecologist to exclude pregnancy or breast feeding, vaginal infections, major operations to the vagina and/or vulva or unexplained gynecological complaints. […] Cardiovascular condition was tested and ECG was checked for significant abnormalities. Standard blood chemistry and hematology tests were performed. […] Subjects could not make appointments during their period of menstruation.
Each subject underwent the four different drug treatments (i.e., PDE5 inhibitor, testosterone, PDE5 inhibitor+testosterone and placebo) at four separate experimental days. The four experimental days were separated by at least a three-day period.
During each day of drug manipulation, subjects underwent the following measurements: • −1:00 hours: Emotional Stroop Task • −0:15 hours: Trial 1 • 0:00 hours: Intake drugs • 0:05 hours: Trial 2 • 2:45 hours: Trial 3 • 4:15 hours: Trial 4
Each day started with a physical examination (measurements of vital signs, blood pressure, heart rate, temperature and respiration rate). Blood samples (8 ml) were taken for hormone analyses. Subjects then were seated in the sound attenuated, dimly lit experimental room. In order to make this room less “sterile,” geographic posters were hung on the walls and an air perfumer was placed behind the subjects. The subjects then executed the emotional Stroop task (15 minutes). The experimenter brought the vaginal probe and the subject was left alone in the room to insert the probe. The subject was instructed to sit as quietly as possible while viewing the film fragments. A ten-minute neutral fragment was followed by a five-minute erotic film fragment. After these baseline measurements, the subjects took medication: testosterone (0.5 mg or placebo) sublingually, with cyclodextrins as carrier and Vardenafil (10 mg or placebo) hidden in a capsule. The medication was followed by another set of neutral (five minutes) and erotic (five minutes) film fragments. The subjects removed the vaginal probe and were taken to a waiting room for a pause of two hours. During this pause, they could consume their lunch. Unlimited coffee and tea were available. This pause was followed by a third set of neutral (five minutes) and erotic (five minutes) film fragments.
Again subjects had to wait for two hours so that the last VPA measurement was taken four hours after medication. This last film-trial (neutral, erotic film fragments) was followed by a second presentation of the emotional Stroop. The experimental day ended with a short physical examination including drawing of a blood sample (8 ml for hormone analyses) and collection of AE and SAE.
During the testosterone condition, one subject became nauseated watching the erotic film and decided not to participate further that day. For the psychophysiological evaluation, the VPA (Vaginal Pulse Amplitude) is used. The VPA reflects phasic changes in the blood volume corresponding with each heartbeat; higher levels indicate higher levels of blood flow. The dependent variable used is the amplitude of the pulse wave. Before the mean VPA was calculated, the raw signal (sample rate was 20 Hz) was digitally bandpass filtered with a Butterworth filter (−3 dB cutoff frequency range 0.7-1.5 Hz; 40 dB down/octave). Movement artifacts were detected by visual inspection of the signal and removed manually. Hereafter, the amplitude was measured as the distance between the top and bottom of a pulse wave. […]

[3] = test system: women suffering from Female Sexual Dysfunction; assay: Sexual desire, genital sensations and subjective sexual arousal in women with FSD; assay type: in vivo, human
Source text: Attentional engagement is an important function for normal human sexuality.

[4] = typical value; cited from earlier work
[5] = test system: sexually functional women; settings: cited from earlier work
women suffering from FSD [6] = test system: women suffering from FSD
Source text: An unmasked and a masked version of the Emotional Stroop Task comparing color-naming latencies on neutral and erotic words were used. In both the unmasked and the masked condition, eight erotic and neutral words are presented in different colors (i.e., red, green, blue and yellow). An extra set of stimuli consisting of letter strings was used for practice trials. Subjects were instructed to ignore the content of the words and to name the color of the words as quickly as possible (in the masked condition, the color of the mask has to be named). Each trial consisted of a fixation point which is shown for 750 ms, followed by the target stimulus (the colored neutral or erotic word). In the masked condition, the word picture is presented for about 24 ms and then masked by randomly cut, reassembled letters in the same color. A microphone connected to a voice-level detector was placed in front of the subject. Initiation of vocal response was registered by the computer's clock and terminated the target presentation (with a no-response maximum of 3000 ms). Thirty-two neutral words and thirty-two erotic words were presented blocked. The same words were used for each test, however, the sequence of words and colors differed all eight times this task was used.
To test for associations with changes in attentional processes, we used the StroopRT as the measurement point. StroopRT is the difference in mean reaction times on color naming of the neutral and the sexual words.

[7] = test system: healthy sexually functional women; settings: 0.5 mg sublingual
Description: In a recently conducted experiment (not published) in healthy sexually functional women, we used a delayed measurement design in which subjects ingested one dosage of testosterone (0.5 mg sublingual) or placebo and after four hours, underwent fMRI while watching neutral and erotic videos. Hereafter, subjects were conducted to a laboratory where their VPA in response to neutral and erotic videos was measured.

[8] = Plasma level of testosterone after sublingual administration; settings: single sublingual dose; of short duration
[9] = test system: healthy sexually functional women; parameters: species or system human; settings: in vivo
Description: In a recently conducted experiment (not published) in healthy sexually functional women, we used a delayed measurement design in which subjects ingested one dosage of testosterone (0.5 mg sublingual) or placebo and after four hours, underwent fMRI while watching neutral and erotic videos. Hereafter, subjects were conducted to a laboratory where their VPA in response to neutral and erotic videos was measured. […] Because of testosterone's delayed effect on enhancing VPA, we expected enhancement of these “erotic” structures in this fMRI study.

[10] = test system: sexually functional women; assay: Vaginal responsiveness to erotic films after a single sublingual dose in sexually functional women

For `CCCCCCCCCCC(=O)O[C@H]1CC[C@H]2[C@@H]3CCC4=CC(=O)CC[C@]4(C)[C@H]3CC[C@]12C` [testosterone undecanoate], which “vaginal responsiveness, first group” value ([1]; 40 mg orally per day, eight weeks, tested in the afternoon) is on record?
The value was “enhanced”.

And the “vaginal responsiveness, another group (unpublished data)” value ([1]; tested in the morning)?
The value was “not found”.

What does the source list for `CCCc1nc(C)c2c(=O)nc(-c3cc(S(=O)(=O)N4CCN(CC)CC4)ccc3OCC)[nH]n12.Cl` [Vardenafil, piperazine, 1-[[3-(1,4-dihydro-5-methyl-4-oxo-7-propylimidazo[5,1-f][1,2,4]triazin-2-yl)-4-ethoxyphenyl]sulfonyl]-4-ethyl-, monohydrochloride]?
Vaginal Pulse Amplitude during exposure to erotic stimuli (vaginal arousability) compared with placebo (women suffering from FSD [2]; women with FSD, listed as PDE5 inhibitor, monohydrochloride): no effect; Vaginal Pulse Amplitude during exposure to erotic stimuli (vaginal arousability) compared with placebo (women suffering from FSD [2]; women with FSD, monohydrochloride): did not lead to a significant difference; increase in VPA between neutral and erotic films, before medication (trial 1) versus after medication (trial 4) (women suffering from FSD [2]; women with FSD): insignificant; sexual desire, genital sensations / subjective sexual arousal compared with placebo [3]: no effect; time to peak plasma concentration after administration [4]: about one

Which sexual performance [5] does the source give for `CCCc1nn(C)c2c(=O)[nH]c(-c3cc(S(=O)(=O)N4CCN(C)CC4)ccc3OCC)nc12.O=C(O)CC(O)(CC(=O)O)C(=O)O` [sildenafil, 1-[[3-(6,7-dihydro-1-methyl-7-oxo-3-propyl-1Hpyrazolo[4,3-d]pyrimidin-5-yl)-4-ethoxyphenyl]sulfonyl]-4-methylpiperazine citrate] here?
The sexual performance was “improves”.

What does the source list for `C[C@]12CC[C@H]3[C@@H](CCC4=CC(=O)CC[C@@]43C)[C@@H]1CC[C@@H]2O` [testosterone, 17-β-hydroxyandrost-4-en-3-one]?
StroopRT (attention for sexual stimuli), not-abused subjects (women suffering from FSD [6]; masked condition, decrease = attention for sexual stimuli increases): decreases; StroopRT (attentional bias for sexual stimuli), sexually abused subjects (women suffering from FSD [6]; masked condition, increase = bias away from sexual stimuli): increases; attentional engagement (or withdrawal) for sexual cues, as compared with placebo and/or a PDE5 inhibitor (women suffering from FSD [6]; women with FSD): increase; relative change in VPA as compared with the placebo, after fMRI procedure [7]: smaller; VPA to erotic stimuli over trials, sexually abused subjects (women suffering from FSD [2]; women with FSD sexually abused during childhood, with or without testosterone): no increase; VPA response to the erotic film, not-abused subjects, testosterone versus no-testosterone conditions (women suffering from FSD [2]; women with FSD, not abused): increases; increase in VPA from before to after measurement, drug conditions containing the steroid versus without the steroid (women suffering from FSD [2]; women with FSD, interaction F(1.12)=5.75, p<0.04, pooled steroid conditions): significantly higher; Vaginal Pulse Amplitude during exposure to erotic stimuli (vaginal arousability) compared with placebo (women suffering from FSD [2]; women with FSD): no effect; also recorded: insufficient for a significant increase; increase in VPA between neutral and erotic films, before medication (trial 1) versus after medication (trial 4) (women suffering from FSD [2]; women with FSD): insignificant; plasma levels of testosterone after intake [8]: sharp increase; sexual desire, genital sensations / subjective sexual arousal compared with placebo [3]: no effect; activation of septum and left dorsolateral PFC (fMRI) [9]: very significant increase; vaginal responsiveness when exposed to visual sexual stimuli ([10]; eight sexually functional women, single sublingual dose versus placebo): striking increase; time lag between plasma testosterone peak and increase in vaginal responsiveness ([10]; sexually functional women, sublingual): three to four and a half

From patent US8227453B2, “Pharmaceutical formulations and uses thereof in the treatment of female sexual dysfunction” (Emotional Brain B.V., priority 2004, dated 2012)
